The assay concerns PKC mediated IL-2 production. In words: IL-2 ELISA, human primary T cell, anti CD3+CD28+. The assay is classed as cell-based. Particulars: human primary T cells stimulated with αCD3 and αCD28, 24 hours. The gist of the method:
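Human peripheral blood T cells, pre-expanded with αCD3/αCD28 and IL-2 and then washed free of IL-2, were pre-incubated with compound for 1 h at 37° C. They were then stimulated on plates coated with […] αCD3 and 5 μg/ml αCD28, or with 0.5 ng/ml PMA plus 0.1 uM ionomycin in the counter assay. IL-2 in supernatants was measured by ELISA after 24 h.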

SMILES strings stand for the structures.

Regarding `Cc1nnnn1-c1ccc(F)c(Nc2ncc(Cl)c(N[C@@H]3C[C@@H]4CCCN4C(C)(C)C3)n2)c1` [Compound 150, 5-chloro-N4-((7R,8aS)-5,5-dimethyloctahydroindolizin-7-yl)-N2-(2-fluoro-5-(5-methyl-1H-tetrazol-1-yl)phenyl)pyrimidine-2,4-diamine], for the setting “Homo sapiens, T-cell, 24 h”, the EC50 was less than 100 nM.

Where the note is “Homo sapiens, T-cell, 24 h”, `CC1(C)C[C@H](Nc2nc(Nc3ccc(N4CCN(C5COC5)CC4)c(C#N)c3)ncc2F)C[C@@H]2CCCN21` [Compound 116] yielded a concentration giving a half-maximal response (EC50) of 100 to 500 nM.

Compound `Cn1nnn(-c2cc(Nc3ncc(F)c(N[C@@H]4C[C@@H]5CCCN5C(C)(C)C4)n3)c(F)cc2OCCNC(=O)OC(C)(C)C)c1=O` [Compound 226, tert-butyl (2-(4-((4-(((7R,8aS)-5,5-dimethyloctahydroindolizin-7-yl)amino)-5-fluoropyrimidin-2-yl)amino)-5-fluoro-2-(4-methyl-5-oxo-4,5-dihydro-1H-tetrazol-1-yl)phenoxy)ethyl)carbamate] registered an EC50 (Homo sapiens, T-cell, 24 h) of 100 to 500 nM.

For the compound `CC(O)COc1ccc(Nc2ncc(Cl)c(N[C@@H]3C[C@@H]4CCCN4C(C)(C)C3)n2)cc1C#N` (stereo partly drawn) [Compound 229, 5-((5-chloro-4-(((7R,8aS)-5,5-dimethyloctahydroindolizin-7-yl)amino)pyrimidin-2-yl)amino)-2-(2-hydroxypropoxy)benzonitrile], where the note is “Homo sapiens, T-cell, 24 h”, the EC50 lay within 1000 to 10000 nM.

On to `Cn1nnn(-c2cc(Nc3ncc(Cl)c(N[C@@H]4C[C@@H]5CCCN5C(C)(C)C4)n3)c(F)cc2OCC(C)(C)O)c1=O` [Compound 240, 1-(5-((5-chloro-4-(((7R,8aS)-5,5-dimethyloctahydroindolizin-7-yl)amino)pyrimidin-2-yl)amino)-4-fluoro-2-(2-hydroxy-2-methylpropoxy)phenyl)-4-methyl-1,4-dihydro-5H-tetrazol-5-one], for which the EC50 (Homo sapiens, T-cell, 24 h) is less than 100 nM.

Consider `Cn1nnn(-c2cc(Nc3ncc(F)c(N[C@@H]4C[C@@H]5CCCN5C(C)(C)C4)n3)c(F)cc2OCC(N)=O)c1=O` [Compound 322, 2-(4-(4-((7R,8aS)-octahydro-5,5-dimethylindolizin-7-ylamino)-5-fluoropyrimidin-2-ylamino)-5-fluoro-2-(4,5-dihydro-4-methyl-5-oxotetrazol-1-yl)phenoxy)acetamide], for which the EC50 (Homo sapiens, T-cell, 24 h) fell in the range of 100 to 500 nM.

As for `CC1(C)C[C@H](Nc2nc(Nc3cccc(-n4nnnc4SC(CN)CO)c3)ncc2F)C[C@@H]2CCCN21` (stereo partly drawn) [Compound 264, 2-(1-(3-(4-((7R,8aS)-octahydro-5,5-dimethylindolizin-7-ylamino)-5-fluoropyrimidin-2-ylamino)phenyl)-1H-tetrazol-5-ylthio)-3-aminopropan-1-ol], the EC50 (Homo sapiens, T-cell, 24 h) lay within 1000 to 10000 nM.

Consider `Cc1nnnn1-c1cc(Nc2ncc(F)c(NC3CC(C)(C)N4CCCC4C3C)n2)ccc1F` (stereo not drawn) [Compound 70, 5-Fluoro-N2-(4-fluoro-3-(5-methyl-1H-tetrazol-1-yl)phenyl)-N4-(octahydro-5,5,8-trimethylindolizin-7-yl)pyrimidine-2,4-diamine], for which the EC50 (Homo sapiens, T-cell, 24 h) lay in the range of 1000 to 10000 nM.

On to `COCCN1C(=O)C(C)(C)Oc2ccc(Nc3ncc(F)c(N[C@@H]4C[C@@H]5CCCN5C(C)(C)C4)n3)cc21` [Compound 319], for which the EC50 (Homo sapiens, T-cell, 24 h) lay in the range of 1000 to 10000 nM.

On to `COc1cc(Nc2ncc(F)c(N[C@H]3C[C@H]4CCCN4C(C)(C)C3)n2)cc(-n2nnnc2C)c1` (single isomer, unassigned) [Compound 11, (R/S, S/R, R/R, S/S)-5-fluoro-N4-(octahydro-5,5-dimethylindolizin-7-yl)N2-(3-methoxy-5-(5-methyl-1H-tetrazol-1-yl)phenyl)pyrimidine-2,4-diamine], for which the 50% effective concentration (EC50) lay within 1000 to 10000 nM.

In turn, `Cn1nnn(-c2cc(Nc3ncc(F)c(N[C@@H]4C[C@@H]5CCCN5C(C)(C)C4)n3)c(F)cc2OCC(O)C(F)(F)F)c1=O` (stereo partly drawn) [Compound 230, 1-(5-((4-(((7R,8aS)-5,5-dimethyloctahydroindolizin-7-yl)amino)-5-fluoropyrimidin-2-yl)amino)-4-fluoro-2-(3,3,3-trifluoro-2-hydroxypropoxy)phenyl)-4-methyl-1,4-dihydro-5H-tetrazol-5-one] yielded an EC50 (Homo sapiens, T-cell, 24 h) of 100 to 500 nM.

Turning to `CC1(C)C[C@H](Nc2nc(Nc3ccc(OCCCO)c(-n4cnnn4)c3)ncc2F)C[C@@H]2CCCN21` [Compound 215, 3-(4-((4-(((7R,8aS)-5,5-dimethyloctahydroindolizin-7-yl)amino)-5-fluoropyrimidin-2-yl)amino)-2-(1H-tetrazol-1-yl)phenoxy)propan-1-ol], the EC50 (Homo sapiens, T-cell, 24 h) is less than 100 nM.

Take `CC1(C)CC[C@H]2C[C@@H](Nc3nc(Nc4ccc(OC5CC(O)C5)c(C#N)c4)ncc3F)CCN21` (stereo partly drawn) [Compound 304]: the EC50 (Homo sapiens, T-cell, 24 h) fell in the range of 100 to 500 nM.

As for `CC(C)N1CCN(c2ccc(Nc3ncc(F)c(N[C@@H]4C[C@@H]5CCCN5C(C)(C)C4)n3)cc2C#N)CC1` [Compound 138, 5-(4-((7R,8aS)-octahydro-5,5-dimethylindolizin-7-ylamino)-5-fluoropyrimidin-2-ylamino)-2-(4-isopropylpiperazin-1-yl)benzonitrile], the EC50 (Homo sapiens, T-cell, 24 h) is less than 100 nM.

In turn, `CC1(C)Oc2ccc(Nc3ncc(F)c(N[C@@H]4C[C@@H]5CCCN5C(C)(C)C4)n3)cc2-n2nnnc21` [Compound 4, N2-(4,4-dimethyl-4H-benzo[b]tetrazolo[1,5-d][1,4]oxazin-8-yl)-5-fluoro-N4-(octahydro-5,5-dimethylindolizin-7-amine)pyrimidine-2,4-diamine] yielded a concentration for a half-maximal effect (EC50) of 1000 to 10000 nM.

The compound `CC1CN(c2ccc(Nc3ncc(F)c(N[C@H]4CCN5[C@@H](CCC5(C)C)C4)n3)cc2OC(F)F)CC(C)O1` (stereo partly drawn) [Compound 300, N2-(3-(Difluoromethoxy)-4-(2,6-dimethylmorpholino)phenyl)-N4-((7S,8aS)-3,3-dimethyloctahydroindolizin-7-yl)-5-fluoropyrimidine-2,4-diamine] came in with an EC50 (Homo sapiens, T-cell, 24 h) of 100 to 500 nM.

Turning to `CC1C(Nc2nc(Nc3cc(N(C)C(=O)N(C)C)c(C4CC4)cc3F)ncc2F)CC(C)(C)N2CCCC12` (stereo not drawn) [Compound 74], the EC50 fell in the range of 100 to 500 nM.

Consider `Cc1ccc(Nc2ncc(F)c(N[C@@H]3C[C@@H]4CCCN4C(C)(C)C3)n2)cc1-n1nnn(CC(C)(C)O)c1=O` [Compound 289, 1-(5-(4-((7R,8aS)-octahydro-5,5-dimethylindolizin-7-ylamino)-5-fluoropyrimidin-2-ylamino)-2-methylphenyl)-4-(2-hydroxy-2-methylpropyl)-1H-tetrazol-5(4H)-one], for which the EC50 (Homo sapiens, T-cell, 24 h) was less than 100 nM.

Turning to `Cn1nnn(-c2cc(Nc3ncc(Cl)c(N[C@@H]4C[C@@H]5CCCN5C(C)(C)C4)n3)c(F)cc2O)c1=O` [Compound 232, 1-(5-((5-chloro-4-(((7R,8aS)-5,5-dimethyloctahydroindolizin-7-yl)amino)pyrimidin-2-yl)amino)-4-fluoro-2-hydroxyphenyl)-4-methyl-1,4-dihydro-5H-tetrazol-5-one], under “Homo sapiens, T-cell, 24 h”, the EC50 was in the range of 500 to 1000 nM.

In the case of `CSc1nnnn1-c1cccc(Nc2ncc(F)c(N[C@@H]3C[C@@H]4CCCN4C(C)(C)C3)n2)c1` [Compound 261, 5-fluoro-N4-((7R,8aS)-octahydro-5,5-dimethylindolizin-7-yl)-N2-(3-(5-(methylthio)-1H-tetrazol-1-yl)phenyl)pyrimidine-2,4-diamine], the EC50 (Homo sapiens, T-cell, 24 h) was less than 100 nM.

On to `Cn1nnn(-c2cc(Nc3ncc(F)c(N[C@@H]4C[C@@H]5CCCN5C(C)(C)C4)n3)ccc2OC2CCOCC2)c1=O` (stereo in doubt) [Compound 52, 1-(5-(5-fluoro-4-(octahydro-5,5-dimethylindolizin-7-ylamino)pyrimidin-2-ylamino)-2-(tetrahydro-2H-pyran-4-yloxy)phenyl)-4-methyl-1H-tetrazol-5(4H)-one], for which, for the setting “Homo sapiens, T-cell, 24 h”, the EC50 is 100 to 500 nM.

Where the note is “Homo sapiens, T-cell, 24 h”, `C[C@H](O)COc1cc(F)c(Nc2ncc(Cl)c(N[C@@H]3C[C@@H]4CCCN4C(C)(C)C3)n2)cc1-n1nnn(C)c1=O` [Compound 235, 1-(5-((5-chloro-4-(((7R,8aS)-5,5-dimethyloctahydroindolizin-7-yl)amino)pyrimidin-2-yl)amino)-4-fluoro-2-((S)-2-hydroxypropoxy)phenyl)-4-methyl-1,4-dihydro-5H-tetrazol-5-one] yielded an EC50 of less than 100 nM.

For the compound `Cc1ccc(Nc2ncc(F)c(N[C@@H]3C[C@@H]4CCCN4C(C)(C)C3)n2)cc1-n1nnn(C2COC2)c1=O` [Compound 276, 1-(5-(4-((7R,8aS)-octahydro-5,5-dimethylindolizin-7-ylamino)-5-fluoropyrimidin-2-ylamino)-2-methylphenyl)-4-(oxetan-3-yl)-1H-tetrazol-5(4H)-one], the EC50 (Homo sapiens, T-cell, 24 h) is less than 100 nM.

Compound `Cn1nnn(-c2cc(Nc3ncc(F)c(N[C@@H]4C[C@@H]5CCCN5C(C)(C)C4)n3)ccc2OCCO)c1=O` [Compound 132, 1-(5-((4-(((7R,8aS)-5,5-dimethyloctahydroindolizin-7-yl)amino)-5-fluoropyrimidin-2-yl)amino)-2-(2-hydroxyethoxy)phenyl)-4-methyl-1,4-dihydro-5H-tetrazol-5-one] returned an EC50 (Homo sapiens, T-cell, 24 h) of less than 100 nM.

Take `Cn1nnn(-c2cc(Nc3ncc(F)c(N[C@@H]4C[C@@H]5CCCN5C(C)(C)C4)n3)c(F)cc2OCC2COC2)c1=O` [Compound 166, 1-(5-((4-(((7R,8aS)-5,5-dimethyloctahydroindolizin-7-yl)amino)-5-fluoropyrimidin-2-yl)amino)-4-fluoro-2-(oxetan-3-ylmethoxy)phenyl)-4-methyl-1,4-dihydro-5H-tetrazol-5-one]: for the setting “Homo sapiens, T-cell, 24 h”, the EC50 was 100 to 500 nM.

Where the note is “Homo sapiens, T-cell, 24 h”, `CC1(C)CC[C@H]2C[C@@H](Nc3nc(Nc4ccc(OC5COC5)c(OC(F)F)c4)ncc3F)CCN21` [Compound 298, N2-(3-(Difluoromethoxy)-4-(oxetan-3-yloxy)phenyl)-N4-((7S,8aS)-3,3-dimethyloctahydroindolizin-7-yl)-5-fluoropyrimidine-2,4-diamine] yielded an EC50 of 100 to 500 nM.

Turning to `Cn1nnn(-c2cc(Nc3ncc(F)c(N[C@@H]4C[C@@H]5CCCN5C(C)(C)C4)n3)c(F)cc2OCCN)c1=O` [Compound 231, 1-(2-(2-aminoethoxy)-5-((4-(((7R,8aS)-5,5-dimethyloctahydroindolizin-7-yl)amino)-5-fluoropyrimidin-2-yl)amino)-4-fluorophenyl)-4-methyl-1,4-dihydro-5H-tetrazol-5-one], the EC50 lay in the range of 500 to 1000 nM.

(Values after patent US9682976B2, “Protein kinase C inhibitors and uses thereof” (Rigel Pharmaceuticals, Inc., priority 2012, dated 2017).)
